The target in one data set is T1, CB cannabinoid receptor (Mus musculus, UniProt P47746).
T1 construct: from tissue; host or cells: whole animal, male CD1 mice
Put plainly: hypothermia induced by CB agonist racemic CP55,940 in mice (rectal temperature). It is filed as in vivo. Particulars: 3 mg/kg po; male CD1 mice; CP55,940 1.25 mg/kg i.p.; rectal temperature at 90 minutes. Here is the method: Other assays consisting in measuring the in vivo activity of the compounds of the invention were carried out. Their antagonist activity was shown by means of the model of […] induced by a CB cannabinoid receptor agonist (racemic CP55,940 ((1RS,3RS,4RS)-3-[2-hydroxy-4-(1,1-dimethylheptyl)phenyl]-4-(3-hydroxypropyl)cyclohexan-1-ol) at a dose of 1.25 mg/kg) in mice, according to the method described by Pertwee R. G. in Marijuana 84, Harvey D. J. eds., Oxford IRL
Press, 263-277 (1985). At time 0 min, the rectal temperature of male CD1 mice is measured before injection of the test product. At 30 minutes, a further measurement of the rectal temperature of the mice is taken and the racemic CP55,940 agonist ((1RS,3RS,4RS)-3-[2-hydroxy-4-(1,1-dimethylheptyl)phenyl]-4-(3-hydroxypropyl)cyclohexan-1-ol) (1.25 mg/kg i.p. in 10% cremophor) is administered. At 90 minutes, the rectal temperature is again measured. The results are expressed as % with respect to the control batched injected with CP 55,940 (minimum temperature) and to the carrier batch without treatment with CP55,940 (maximum temperature).

The target in the next data set is T2, human CB1 receptor (Homo sapiens, UniProt P21554).
T2 construct: U373MG cells naturally expressing the human CB1 receptor; endogenous in cells; host or cells: U373MG cells
T2 sequence (P21554 whole entry): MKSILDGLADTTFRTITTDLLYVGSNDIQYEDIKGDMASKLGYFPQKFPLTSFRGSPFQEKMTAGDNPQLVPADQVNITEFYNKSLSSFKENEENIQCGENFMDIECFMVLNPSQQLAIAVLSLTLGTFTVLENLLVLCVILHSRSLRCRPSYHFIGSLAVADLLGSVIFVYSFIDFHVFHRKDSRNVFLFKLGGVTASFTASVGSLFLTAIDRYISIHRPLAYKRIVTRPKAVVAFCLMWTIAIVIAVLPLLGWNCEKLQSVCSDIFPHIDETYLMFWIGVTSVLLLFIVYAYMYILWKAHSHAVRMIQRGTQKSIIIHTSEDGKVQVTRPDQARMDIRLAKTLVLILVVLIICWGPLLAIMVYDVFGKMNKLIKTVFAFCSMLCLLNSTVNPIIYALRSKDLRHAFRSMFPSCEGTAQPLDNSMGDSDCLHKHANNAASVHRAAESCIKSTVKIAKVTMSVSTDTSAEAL
Put plainly: intracellular cyclic AMP functional test in U373MG cells (HTRF cAMP Dynamic Kit). To be noted: U373MG cells naturally expressing the human CB1 receptor. The data set is classed as cell-based. As for the experimental part:
The compounds according to the invention have formed the subject of pharmacological assays which make it possible to determine the activity with regard to human CB1-type cannabinoid receptors. The effectiveness of the compounds of formula (I) was determined in a functional test in which the activity of the CB1 cannabinoid receptors is measured (intracellular cyclic AMP test). The test for detecting intracellular cyclic AMP in U373MG cells naturally expressing the human CB1 receptor was carried out as described in the reference: Bouaboula et al., 1995, J. Biol. Chem. 270: 13973-13980. The HTRF cAMP Dynamic Kit from CisBio was used to quantify the intracellular cyclic AMP. In this test, the IC50 values are between 0.001 μM and 2 μM.
(In general: In TR-FRET formats the signal depends on donor and acceptor labels being close together.)

Data set [1] concerns the target T3, CB1-type cannabinoid receptor (Mus musculus, UniProt P47746).
T3 construct: male CD1 mice receive the test product per os; from tissue; host or cells: whole animal, male CD1 mice
Put plainly: inhibition of gastrointestinal transit induced by racemic CP55,940 in mice (charcoal bolus). It is filed as in vivo. Particulars: 1 mg/kg po; male CD1 mice; CP55,940 0.15 mg/kg ip; progression of charcoal bolus. The source says:
Thirty minutes later, the animals are sacrificed by euthanasia (CO2/O2) and the intestine is dissected. The progression of the charcoal bolus in the intestine is expressed as percentage of the total length of the intestine.
Consequently, the compounds of the invention of formula (I) are in vitro and in vivo CB1-type cannabinoid receptor antagonists. Some compounds are active in vivo with regard to both the hypothermia test and the transit test, and some compounds show activities split up between the hypothermia test and the transit test.

Counter-ions that a name gives are not always drawn.

T3 sequence (P47746 whole entry): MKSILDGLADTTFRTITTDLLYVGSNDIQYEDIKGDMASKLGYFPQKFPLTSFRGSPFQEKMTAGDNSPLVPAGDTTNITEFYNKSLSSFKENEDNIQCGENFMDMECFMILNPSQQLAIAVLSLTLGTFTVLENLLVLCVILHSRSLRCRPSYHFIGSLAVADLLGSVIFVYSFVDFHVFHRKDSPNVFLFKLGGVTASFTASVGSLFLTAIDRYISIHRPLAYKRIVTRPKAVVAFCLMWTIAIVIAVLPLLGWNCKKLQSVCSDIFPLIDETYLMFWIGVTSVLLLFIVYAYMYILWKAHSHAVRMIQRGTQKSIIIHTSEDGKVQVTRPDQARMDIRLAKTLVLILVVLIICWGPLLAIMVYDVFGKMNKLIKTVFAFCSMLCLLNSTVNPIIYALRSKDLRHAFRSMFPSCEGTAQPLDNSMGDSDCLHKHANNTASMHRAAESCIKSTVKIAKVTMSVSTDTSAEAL
T1 sequence (P47746 whole entry): as above

By melting point is commonly meant the temperature of the solid-liquid transition. As to `CC(CO)NC(=O)c1cc(F)cc(N(C2CN(C(c3ccc(Cl)cc3)c3ccc(Cl)cc3)C2)S(C)(=O)=O)c1` (single isomer, unassigned; (+)) [Compound No. 25, (+)-3-({1-[Bis(4-chlorophenyl)methyl]azetidin-3-yl}(methanesulphonyl)amino)-5-fluoro-N-(2-hydroxy-1-methylethyl)benzamide], the melting point is 148 to 150 °C. This compound also displayed a percentage of inhibition at CB cannabinoid receptor of 18%.

As a reminder, the IC50 is the midpoint of a concentration-inhibition curve. A higher IC50 goes with lower potency. Take `CS(=O)(=O)N(c1cccc(C(=O)NC2(CCO)CC2)c1)C1CN(C(c2ccc(Cl)cc2)c2ccc(Cl)cc2)C1` [compound 21, 3-({1-[bis(4-chlorophenyl)methyl]azetidin-3-yl}(methanesulphonyl)amino)-N-[1-(2-hydroxyethyl)cyclopropyl]benzamide]: inhibition at human CB1 receptor was half-maximal at 38 nM (IC50).

`CS(=O)(=O)N(c1cc(F)cc(C(=O)NCC(O)C(F)(F)F)c1)C1CN(C(c2ccc(Cl)cc2)c2ccc(Cl)cc2)C1` (centres unmarked) [compound 30, 3-({1-[bis(4-chlorophenyl)methyl]azetidin-3-yl}(methanesulphonyl)amino)-5-fluoro-N-(3,3,3-trifluoro-2-hydroxyprop-1-yl)benzamide] came in with an IC50 at human CB1 receptor of 66 nM. Compared with the last compound, the IC50 is about 1.7-fold higher.

In the case of `CS(=O)(=O)N(c1cc(F)cc(C(=O)N[C@H]2COC[C@@H]2O)c1)C1CN(C(c2ccc(Cl)cc2)c2ccc(Cl)cc2)C1` (racemic) [compound 47, 3-({1-[bis(4-chlorophenyl)methyl]azetidin-3-yl}(methanesulphonyl)amino)-5-fluoro-N-((3SR,4RS)-4-hydroxytetrahydrofuran-3-yl)benzamide], at human CB1 receptor, the IC50 was 72 nM. The IC50 values of the last two compounds are within 1.5-fold of each other.

Compound `CS(=O)(=O)N(c1cc(C(=O)N[C@H]2CCC[C@@H]2O)cc(C(F)(F)F)c1)C1CN(C(c2ccc(Cl)cc2)c2ccc(Cl)cc2)C1` (racemic) [compound 41, 3-({1-[bis(4-chlorophenyl)methyl]azetidin-3-yl} (methanesulphonyl)amino)-N-((1SR,2SR)-2-hydroxycyclopent-1-yl)-5-(trifluoromethyl)benzamide] registered a percentage of inhibition in data set [1] of 91%.

The compound `CS(=O)(=O)N(c1cccc(C(=O)NC(CO)CO)c1)C1CN(C(c2ccc(Cl)cc2)c2ccc(Cl)cc2)C1` [Compound No. 17, 3-({1-[Bis(4-chlorophenyl)methyl]azetidin-3-yl}(methanesulphonyl)amino)-N-(2-hydroxy-1-(hydroxymethyl)ethyl)benzamide] returned a melting point of 192 to 194 °C.

At human CB1 receptor, `CC1(C)OCC(CNC(=O)c2cccc(N(C3CN(C(c4ccc(Cl)cc4)c4ccc(Cl)cc4)C3)S(C)(=O)=O)c2)O1` (single isomer, unassigned; (-)) [Compound No. 5, (−)-3-({1-[Bis(4-chlorophenyl)methyl]azetidin-3-yl}(methanesulphonyl)amino)-N-(2,2-dimethyl-1,3-dioxolan-4-ylmethyl)benzamide] came in with an IC50 of 22 nM.

Take `C[C@@H](CO)NC(=O)c1cccc(N(C2CN(C(c3ccc(Cl)cc3)c3ccc(Cl)cc3)C2)S(C)(=O)=O)c1` [Compound No. 9, (+)-3-({1-[Bis(4-chlorophenyl)methyl]azetidin-3-yl}(methanesulphonyl)amino)-N-(2-hydroxy-1-methylethyl)benzamide]: the melting point is 192 to 194 °C. At human CB1 receptor, this compound returned an IC50 of 15 nM. In addition, on CB cannabinoid receptor, the percentage of inhibition is recorded as 30%. In addition, the percentage of inhibition in data set [1] stood at 82%.

On to `CC(C)(O)CNC(=O)c1cccc(N(C2CN(C(c3ccc(Cl)cc3)c3ccc(Cl)cc3)C2)S(C)(=O)=O)c1` [compound 13, 3-({1-[bis(4-chlorophenyl)methyl]azetidin-3-yl}(methanesulphonyl)amino)-N-(2-hydroxy-2-methylprop-1-yl)benzamide], for which the melting point was determined as 140 °C.

For the compound `C[C@@H](CO)NC(=O)c1cc(N(C2CN(C(c3ccc(Cl)cc3)c3ccc(Cl)cc3)C2)S(C)(=O)=O)cc(C(F)(F)F)c1` [compound 36, (+)-3-({1-[bis(4-chlorophenyl)methyl]azetidin-3-yl}(methanesulphonyl)amino)-N—((S)-1-hydroxyprop-2-yl)-5-(trifluoromethyl)benzamide], the IC50 against human CB1 receptor is 16 nM. Also, the percentage of inhibition in data set [1] is on record as 85%.

Take `CC(CO)(CO)NC(=O)c1cc(F)cc(N(C2CN(C(c3ccc(Cl)cc3)c3ccc(Cl)cc3)C2)S(C)(=O)=O)c1` [Compound No. 27, 3-({1-[Bis(4-chlorophenyl)methyl]azetidin-3-yl}(methanesulphonyl)amino)-5-fluoro-N-(2-hydroxy-1-hydroxymethyl-1-methylethyl)benzamide]: the melting point lay in the range of 159 to 161 °C. In data set [1], this compound displayed a percentage of inhibition of 58%.

`CC(CO)(CO)NC(=O)c1cccc(N(C2CN(C(c3ccc(Cl)cc3)c3ccc(Cl)cc3)C2)S(C)(=O)=O)c1` [compound 18, 3-({1-[bis(4-chlorophenyl)methyl]azetidin-3-yl}(methanesulphonyl)amino)-N-[1,3-dihydroxy-2-methylprop-2-yl]benzamide] had a melting point of 192 °C. Further, the IC50 on human CB1 receptor was determined as 6 nM.

For `CS(=O)(=O)N(c1cccc(C(=O)NCCO)c1)C1CN(C(c2ccc(Cl)cc2)c2ccc(Cl)cc2)C1` [Compound No. 7, 3-({1-[Bis(4-chlorophenyl)methyl]azetidin-3-yl}(methanesulphonyl)amino)-N-(2-hydroxyethyl)benzamide hydrochloride (1:1)], inhibition at human CB1 receptor was half-maximal at 61 nM (IC50).

The compound `CS(=O)(=O)N(c1cc(F)cc(C(=O)NC(CO)CO)c1)C1CN(C(c2ccc(Cl)cc2)c2ccc(Cl)cc2)C1` [Compound No. 26, 3-({1-[Bis(4-chlorophenyl)methyl]azetidin-3-yl}(methanesulphonyl)amino)-5-fluoro-N-(2-hydroxy-1-(hydroxymethyl)ethyl)benzamide] had a melting point of 144 to 146 °C. On human CB1 receptor, this compound came in with a half-maximal inhibitory concentration (IC50) of 20 nM.

Regarding `CC(C)(CO)NC(=O)c1cccc(N(C2CN(C(c3ccc(Cl)cc3)c3ccc(Cl)cc3)C2)S(C)(=O)=O)c1` [compound 16, 3-({1-[bis(4-chlorophenyl)methyl]azetidin-3-yl}(methanesulphonyl)amino)-N-(2-hydroxy-1,1-dimethylethyl)benzamide], the melting point was determined as 162 °C.

Values taken from patent US20110053908A1, “AZETIDINE-DERIVED COMPOUNDS, PREPARATION METHOD THEREFOR AND THERAPEUTIC USE OF SAME” (SANOFI-AVENTIS, priority 2008, published 2011).
